Data from patent publication US20100184094A1, “USE OF MDCK CELLS IN THE EVALUATION OF CHOLESTEROL MODULATORS” (priority 2007, published 2010).
Where two headings read alike, the source gives them in different places.

Tests used:
human NPC1L1 [1] = target: T1, human NPC1L1 (Homo sapiens, UniProt Q9UHC9); assay: [3H]AS binding to hNPC1L1/MDCKII-Flp cells; conditions: FIG. 7D, read-out: Ki inhibition of [3H]AS binding
T1 construct: expressed in transfected cells
T1 sequence (Q9UHC9 22-1359): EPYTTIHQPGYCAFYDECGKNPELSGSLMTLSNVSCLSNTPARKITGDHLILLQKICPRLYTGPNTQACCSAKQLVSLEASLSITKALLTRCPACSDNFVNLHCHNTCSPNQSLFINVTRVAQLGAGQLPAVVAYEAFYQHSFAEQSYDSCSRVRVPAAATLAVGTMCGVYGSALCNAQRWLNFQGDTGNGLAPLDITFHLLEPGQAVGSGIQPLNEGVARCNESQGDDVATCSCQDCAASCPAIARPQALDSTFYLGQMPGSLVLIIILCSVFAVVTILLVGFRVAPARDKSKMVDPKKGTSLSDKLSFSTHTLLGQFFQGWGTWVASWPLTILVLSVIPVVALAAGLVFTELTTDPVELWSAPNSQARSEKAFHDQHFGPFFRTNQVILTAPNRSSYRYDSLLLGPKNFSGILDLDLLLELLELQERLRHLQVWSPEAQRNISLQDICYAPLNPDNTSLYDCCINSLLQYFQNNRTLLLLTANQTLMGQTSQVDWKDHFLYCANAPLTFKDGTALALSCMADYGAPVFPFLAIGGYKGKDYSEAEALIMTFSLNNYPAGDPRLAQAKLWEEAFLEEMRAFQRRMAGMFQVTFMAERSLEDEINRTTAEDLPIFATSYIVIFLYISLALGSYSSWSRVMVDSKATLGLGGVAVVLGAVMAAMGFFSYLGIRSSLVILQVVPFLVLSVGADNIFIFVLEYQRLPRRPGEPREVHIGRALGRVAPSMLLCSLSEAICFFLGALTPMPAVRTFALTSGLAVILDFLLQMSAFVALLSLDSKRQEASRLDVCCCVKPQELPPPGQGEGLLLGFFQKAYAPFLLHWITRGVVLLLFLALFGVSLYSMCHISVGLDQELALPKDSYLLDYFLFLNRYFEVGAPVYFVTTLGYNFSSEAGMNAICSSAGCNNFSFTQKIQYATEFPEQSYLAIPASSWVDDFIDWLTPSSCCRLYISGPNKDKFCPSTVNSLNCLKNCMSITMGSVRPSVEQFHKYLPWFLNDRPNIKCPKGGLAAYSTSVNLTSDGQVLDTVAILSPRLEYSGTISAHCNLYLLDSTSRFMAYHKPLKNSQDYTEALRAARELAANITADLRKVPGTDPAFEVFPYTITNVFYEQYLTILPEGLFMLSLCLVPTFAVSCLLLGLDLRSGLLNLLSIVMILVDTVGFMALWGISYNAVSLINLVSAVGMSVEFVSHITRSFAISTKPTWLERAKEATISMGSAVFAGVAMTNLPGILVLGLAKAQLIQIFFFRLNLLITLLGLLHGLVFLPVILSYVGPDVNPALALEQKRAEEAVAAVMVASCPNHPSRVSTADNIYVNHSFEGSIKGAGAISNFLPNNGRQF
Description: rNPC1L1/HEK293 and TsA201 cells were seeded at a density of 10,000 cells per well in 96-well poly-D-lysine coated plates and cells were allowed to attach for approximately 18 h at 37° C. TsA201 cells were subsequently transfected with dog NPC1L1/pcDNA5/FRT according to the manufacturer's instructions (Roche) and incubated for 3 days at 37° C. MDCKII-derived, LLC-PKI, HepG2, or CaCo-2 cells were seeded at a density of 25,000 cells per well in 96-well tissue culture treated plates, and cells were allowed to attach and differentiate for approximately 72 h at 37° C., except for CaCo-2 cells where differentiation took approximately 14 days at 37° C. […] Duplicate samples were averaged for each experimental point. […] Dissociation kinetics were determined by addition of 100 μM EZE-gluc, and incubating for different periods of time. Nonspecific binding was defined in the presence of 100 μM EZE-gluc. At the end of the incubation period, cells were washed twice with 200 μl of pre-warmed DMEM to separate bound from free ligand, 1% SDS was added to the wells followed by 5 ml of Scintillant, and radioactivity associated with cells was determined using a β-counter. […] Thereafter, plates were placed on ice and cells were washed twice with ice-cold PBS, followed by ice-cold acid wash with DMEM, pH 3.5, for 1, 5 or 15 minutes. […] For Transwell experiments, MDCKII cells were seeded at 200,000 cells/well in a 24-well plate and incubated for 3 days at 37° C. […] Thereafter, both apical and basolateral compartments were washed three times with PBS, and the Transwell filter was cut out and its associated radioactivity determined using afi-counter. Data from saturation, competition and ligand dissociation experiments were analyzed as described in the literature; see, Priest, et al., 2004 Biochemistry 43:9866-9876; Knaus et al., 1995 Biochemistry 34:13627-13634. The association rate, k1, was determined by employing the pseudo-first-order rate equation k1=kobs([LR]e/[L][LR]max)) where [LR]max is the concentration of the complex at equilibrium, [L] is the concentration of ligand, [LR]max is the total receptor concentration, kobs is the slope of the pseudo-first order plot, ln([LR]e/([LR]e−[LR]t)) versus time, and [LR]t is the receptor-ligand complex at one given time point t.
To validate MDCKII cells as an appropriate surrogate system for monitoring NPC1L1-dependent processes, we evaluated their ability to perform EZE-sensitive cholesterol flux using a similar protocol to that recently reported. This assay makes use of the ability of βmCD to deplete membrane-bound cholesterol. […]
(§1) To further characterize the [^3H] cholesterol influx process into MDCK cells, the potency of EZE-like compound PS for inhibiting [^3H] cholesterol uptake was determined.

human NPC1L1 [2] = target: T1, human NPC1L1; assay: [3H]cholesterol flux into hNPC1L1/MDCKII-Flp cells; assay type: cell-based; conditions: for IC50: hNPC1L1/MDCKII-Flp
Description: Flux assays were performed essentially as described by Yu et al., 2006 J Biol. Chem. 281:6616-6624. Briefly, cell growth medium was completely aspirated and replaced with 200 μl of 5% LPDS containing the appropriate concentration of compound and incubated at 37° C./3 h in a 5% CO2 incubator. Media was subsequently aspirated from cells and cells were incubated in 200 μl of 0-5.5% βmCD dissolved and filtered through a […] filter at 37° C./45 minutes in a 5% CO2 incubator. Media was dumped from cells that were then washed twice with 125 μl of 5% LPDS before media was aspirated and [3H]cholesterol complexed to BSA in 5% LPDS was added; see Yu et al., 2006 J. Biol. Chem. 281:6616-6624. After 45 minute incubation, cells were washed twice with DMEM, thoroughly aspirated and then 1% SDS was added prior to extraction for scintillation counting.
To validate MDCKII cells as an appropriate surrogate system for monitoring NPC1L1-dependent processes, we evaluated their ability to perform EZE-sensitive cholesterol flux using a similar protocol to that recently reported. This assay makes use of the ability of βmCD to deplete membrane-bound cholesterol. Subsequent exposure of cells to [^3H] cholesterol provides a time-dependent flux of this substrate into the cells. […] In an attempt to improve the assay window, a stable MDCKII-Flp cell line over-expressing human NPC1L1, hNPC1L1/MDCKII-Flp, was generated.
as §1

[3] = FIG. 7D, read-out: IC50 block of [3H]cholesterol flux

What does the source list for `O=C(O)[C@H]1O[C@@H](Oc2ccc([C@@H]3[C@@H](CC[C@H](O)c4ccc(F)cc4)C(=O)N3c3ccc(F)cc3)cc2)[C@H](O)[C@@H](O)[C@@H]1O` [EZE-gluc, ezetimibe glucuronide]?
Ki (human NPC1L1 [1]): 209 nM; IC50 (human NPC1L1 [2]; [3]): 300 nM

`COC(=O)[C@H]1O[C@@H](Oc2ccc([C@@H]3[C@@H](CC[C@H](O)c4ccc(F)cc4)C(=O)N3c3ccc(C#CCNS(C)(=O)=O)cc3)cc2)[C@H](O)[C@@H](O)[C@@H]1O` [PS, 4-[(2S,3R)-3-[(3S)-3-(4-fluorophenyl)-3-hydroxypropyl]-1-(4-{3-[(methylsulfonyl)amino]prop-1-yn-1-yl}phenyl)-4-oxoazetidin-2-yl]phenyl methyl-β-D-glucopyranosiduronate] was tested. Which Ki (human NPC1L1 [1]) did it give?
The Ki was 5 nM.

What about the “blockade of [3H]cholesterol influx” value (human NPC1L1 [2]; 10 μM PS, 5.5% βmCD treatment) of the same compound?
The value was “almost completely blocked”.

What about the IC50 (human NPC1L1 [2]; FIG. 7C, read-out: IC50 inhibition of [3H]cholesterol uptake) of the same compound?
Its IC50 is 10.3 ± 1.5 nM.

And the IC50 (human NPC1L1 [2]; [3])?
Its IC50 is 7 nM.

How did the Ki (human NPC1L1 [1]) turn out when `O=C1[C@H](CC[C@H](O)c2ccc(F)cc2)[C@@H](c2ccc(O)cc2)N1c1ccc(F)cc1` [EZE, Ezetimibe] was run?
Its Ki is 1300 nM.

And the IC50 (human NPC1L1 [2]; [3])?
Its IC50 is > 1000 nM.
